Source: ChEMBL document CHEMBL5518185, “Design, synthesis and antitumor activity of 4-arylamine substituted pyrimidine derivatives as noncovalent EGFR inhibitors overcoming C797S mutation” (Eur J Med Chem, 2024)
Calls of active or inactive are those of the source. The calls are words filed in the database; no cut-off is given here.

What was measured:
[1] = biological target: Mitogen-activated protein kinase; ERK1/ERK2 (Homo sapiens) (UniProt P27361+P28482); assay: Inhibition of ERK1/2 phosphorylation (unknown origin) at 100 nM by Western blotting analysis; assay type: protein assay
Chain of Mitogen-activated protein kinase; ERK1/ERK2 (Homo sapiens) (P27361 whole entry, looked up): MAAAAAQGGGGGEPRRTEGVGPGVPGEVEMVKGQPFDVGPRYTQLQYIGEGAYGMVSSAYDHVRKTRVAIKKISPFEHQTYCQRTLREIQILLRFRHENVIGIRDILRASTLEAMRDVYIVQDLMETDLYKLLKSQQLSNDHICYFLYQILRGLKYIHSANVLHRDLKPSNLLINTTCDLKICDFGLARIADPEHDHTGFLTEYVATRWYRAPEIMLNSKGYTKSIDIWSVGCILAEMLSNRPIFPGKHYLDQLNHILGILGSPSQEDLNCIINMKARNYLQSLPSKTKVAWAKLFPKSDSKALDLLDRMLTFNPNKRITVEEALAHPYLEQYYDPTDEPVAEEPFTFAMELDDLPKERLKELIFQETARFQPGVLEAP
Chain of Mitogen-activated protein kinase; ERK1/ERK2 (Homo sapiens) (P28482 whole entry, looked up): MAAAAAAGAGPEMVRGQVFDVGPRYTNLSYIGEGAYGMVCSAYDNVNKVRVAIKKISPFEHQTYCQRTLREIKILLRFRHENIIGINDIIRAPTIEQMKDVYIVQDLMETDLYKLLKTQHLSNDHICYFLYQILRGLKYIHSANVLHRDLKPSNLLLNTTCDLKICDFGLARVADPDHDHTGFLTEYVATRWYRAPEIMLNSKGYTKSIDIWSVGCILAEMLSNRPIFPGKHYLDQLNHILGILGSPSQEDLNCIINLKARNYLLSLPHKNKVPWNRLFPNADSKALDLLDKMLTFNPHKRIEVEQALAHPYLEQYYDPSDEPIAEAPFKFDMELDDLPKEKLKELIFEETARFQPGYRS

[2] = test system: A549; assay: Antiproliferative activity against human A549 cells assessed as inhibition of cell growth measured after 72 hrs by MTT assay; assay type: functional, cell-based; conditions: A549, 72 h
[3] = biological target: Mast/stem cell growth factor receptor Kit (Homo sapiens) (UniProt P10721); assay: Inhibition of c-kit (unknown origin) by HTRF assay relative to control; conditions: concentration not given here
Chain of Mast/stem cell growth factor receptor Kit (Homo sapiens) (P10721 whole entry): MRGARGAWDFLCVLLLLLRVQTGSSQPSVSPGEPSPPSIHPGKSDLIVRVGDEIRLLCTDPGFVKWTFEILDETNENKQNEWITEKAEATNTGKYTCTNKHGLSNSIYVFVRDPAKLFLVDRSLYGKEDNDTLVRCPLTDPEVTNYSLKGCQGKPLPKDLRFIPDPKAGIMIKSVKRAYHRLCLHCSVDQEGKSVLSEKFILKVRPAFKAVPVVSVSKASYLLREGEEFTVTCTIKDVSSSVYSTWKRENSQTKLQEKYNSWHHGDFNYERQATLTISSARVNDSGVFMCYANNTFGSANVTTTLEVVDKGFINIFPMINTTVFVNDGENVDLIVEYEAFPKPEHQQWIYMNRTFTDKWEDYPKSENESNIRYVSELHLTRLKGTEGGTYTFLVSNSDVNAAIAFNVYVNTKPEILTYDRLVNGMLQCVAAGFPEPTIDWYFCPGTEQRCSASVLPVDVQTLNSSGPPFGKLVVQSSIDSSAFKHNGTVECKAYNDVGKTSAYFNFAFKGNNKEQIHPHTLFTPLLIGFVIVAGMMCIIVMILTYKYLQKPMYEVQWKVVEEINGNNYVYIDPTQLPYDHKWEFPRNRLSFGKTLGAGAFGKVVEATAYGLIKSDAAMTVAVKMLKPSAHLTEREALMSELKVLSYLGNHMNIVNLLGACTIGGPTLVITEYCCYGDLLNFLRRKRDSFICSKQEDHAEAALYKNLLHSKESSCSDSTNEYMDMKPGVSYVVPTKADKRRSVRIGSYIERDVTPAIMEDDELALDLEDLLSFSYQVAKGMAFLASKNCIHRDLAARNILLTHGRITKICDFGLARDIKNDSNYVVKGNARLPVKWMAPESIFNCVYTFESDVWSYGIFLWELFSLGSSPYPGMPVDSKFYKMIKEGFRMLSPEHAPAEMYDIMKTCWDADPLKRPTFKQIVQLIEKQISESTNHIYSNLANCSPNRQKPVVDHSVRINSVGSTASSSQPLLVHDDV

[4] = Toxicity in BALB/c nude mouse assessed as drug tolerability at 10 to 50 mg/kg/day, po measured every three days for 21 days; assay type: organism-based; conditions: in vivo, 504 h, dose 10-50 mg/kg/day, time 21 day
[5] = test system: HCC827; assay: Induction of apoptosis in human HCC827 cells assessed as necrotic cells at 100 nM measured after 24 hrs by annexin V/PI staining based flu cytometry analysis (reference value: 7.34%); assay type: functional
[6] = organism: Homo sapiens; assay: Inhibition of VGFR (unknown origin) by HTRF assay relative to control; conditions: concentration not given here
[7] = biological target: Epidermal growth factor receptor (Homo sapiens, UniProt P00533, L858R/T790M); assay: Inhibition of EGFR L858R/T790M (unknown origin) preincubated for 10 mins followed by substrate addition and measured after 50 mins in presence of ATP by HTRF assay
Chain of Epidermal growth factor receptor (Homo sapiens, UniProt P00533, L858R/T790M) (P00533 25-1210 T790M/L858R limits assumed): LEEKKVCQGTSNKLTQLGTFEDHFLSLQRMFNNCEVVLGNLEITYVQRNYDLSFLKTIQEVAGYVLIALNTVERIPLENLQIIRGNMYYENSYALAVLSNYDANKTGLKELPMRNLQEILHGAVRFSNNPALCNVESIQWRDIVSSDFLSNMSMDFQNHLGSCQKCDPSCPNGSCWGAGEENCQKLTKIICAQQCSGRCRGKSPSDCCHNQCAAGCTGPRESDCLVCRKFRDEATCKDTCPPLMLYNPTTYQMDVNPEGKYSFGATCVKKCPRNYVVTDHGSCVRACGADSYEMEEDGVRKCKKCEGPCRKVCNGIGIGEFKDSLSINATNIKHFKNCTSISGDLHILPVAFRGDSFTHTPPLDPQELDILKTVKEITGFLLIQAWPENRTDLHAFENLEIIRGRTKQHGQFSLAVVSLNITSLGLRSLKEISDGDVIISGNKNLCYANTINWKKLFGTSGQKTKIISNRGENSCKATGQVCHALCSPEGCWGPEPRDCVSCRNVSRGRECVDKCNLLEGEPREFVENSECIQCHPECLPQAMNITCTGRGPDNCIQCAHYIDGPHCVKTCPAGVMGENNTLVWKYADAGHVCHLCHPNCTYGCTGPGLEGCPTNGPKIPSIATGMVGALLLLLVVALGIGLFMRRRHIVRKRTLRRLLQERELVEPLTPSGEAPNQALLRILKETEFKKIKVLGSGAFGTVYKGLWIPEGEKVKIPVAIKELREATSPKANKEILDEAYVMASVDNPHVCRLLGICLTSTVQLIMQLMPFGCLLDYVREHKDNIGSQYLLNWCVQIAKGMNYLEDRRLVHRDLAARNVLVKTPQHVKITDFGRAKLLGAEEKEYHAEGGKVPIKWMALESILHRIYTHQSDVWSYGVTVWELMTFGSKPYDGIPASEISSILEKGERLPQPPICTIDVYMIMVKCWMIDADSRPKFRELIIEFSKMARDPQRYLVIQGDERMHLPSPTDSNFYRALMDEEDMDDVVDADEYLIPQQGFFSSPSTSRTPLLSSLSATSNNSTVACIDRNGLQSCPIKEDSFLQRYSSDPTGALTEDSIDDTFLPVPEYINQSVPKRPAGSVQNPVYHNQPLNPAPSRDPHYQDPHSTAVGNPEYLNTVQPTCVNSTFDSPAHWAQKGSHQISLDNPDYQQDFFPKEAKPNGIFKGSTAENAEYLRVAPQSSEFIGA

[8] = test system: HCC827; assay: Induction of apoptosis in human HCC827 cells assessed as early apoptotic cells at 10 nM measured after 24 hrs by annexin V/PI staining based flu cytometry analysis (reference value: 3.2%); assay type: functional
[9] = test system: HCC827; assay: Induction of apoptosis in human HCC827 cells assessed as activation of cleaved-caspase-3 level measured after 48 hrs by Western blot analysis; assay type: functional, cell-based; conditions: dose 10-400 nM
[10] = biological target: Insulin-like growth factor 1 receptor (Homo sapiens) (UniProt P08069); assay: Inhibition of IGF-1R (unknown origin) by HTRF assay relative to control; conditions: concentration not given here
[11] = biological target: RAF proto-oncogene serine/threonine-protein kinase (Homo sapiens) (UniProt P04049); assay: Inhibition of c-RAF (unknown origin) by HTRF assay relative to control; conditions: concentration not given here
[12] = test system: HCC827; assay: Inhibition of colony formation in human HCC827 cells measured after 14 days by crystal violet staining based analysis; assay type: functional, cell-based; conditions: HCC827, 336 h
[13] = test system: HCC827; assay: Induction of apoptosis in human HCC827 cells assessed as activation of caspase-3 level measured after 48 hrs by Western blot analysis; assay type: functional, cell-based; conditions: dose 10-400 nM
[14] = test system: HCC827; assay: Induction of apoptosis in human HCC827 cells assessed as late apoptotic cells at 30 nM measured after 24 hrs by annexin V/PI staining based flu cytometry analysis (reference value: 5.50%); assay type: functional
[15] = biological target: Proto-oncogene tyrosine-protein kinase Src (Homo sapiens) (UniProt P12931); assay: Inhibition of Src (unknown origin) by HTRF assay relative to control; conditions: concentration not given here
Chain of Proto-oncogene tyrosine-protein kinase Src (Homo sapiens) (P12931 2-536 limits assumed): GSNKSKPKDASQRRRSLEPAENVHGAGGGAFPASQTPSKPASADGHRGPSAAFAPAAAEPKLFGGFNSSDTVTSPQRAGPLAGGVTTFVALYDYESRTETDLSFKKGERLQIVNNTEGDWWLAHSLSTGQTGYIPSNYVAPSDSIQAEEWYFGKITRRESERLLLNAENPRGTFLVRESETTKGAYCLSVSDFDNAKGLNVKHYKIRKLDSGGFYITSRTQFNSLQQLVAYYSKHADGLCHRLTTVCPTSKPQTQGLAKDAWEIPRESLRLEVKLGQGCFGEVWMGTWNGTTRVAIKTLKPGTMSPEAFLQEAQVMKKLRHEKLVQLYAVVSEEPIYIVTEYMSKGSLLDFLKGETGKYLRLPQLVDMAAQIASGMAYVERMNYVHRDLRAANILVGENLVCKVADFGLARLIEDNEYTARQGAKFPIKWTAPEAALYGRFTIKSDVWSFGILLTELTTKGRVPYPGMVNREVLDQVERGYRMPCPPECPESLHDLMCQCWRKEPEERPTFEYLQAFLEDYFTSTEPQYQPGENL

[16] = test system: HCC827; assay: Induction of cell cycle arrest in human HCC827 cells assessed as accumulation of cells at G2/M phase at 100 nM measured after 24 hrs by PI staining based flow cytometry analysis (reference value: 16.83%); assay type: functional
[17] = biological target: Epidermal growth factor receptor (Homo sapiens, UniProt P00533); assay: Inhibition of wild type EGFR (unknown origin) at 100 nM preincubated for 10 mins followed by substrate addition and measured after 50 mins in presence of ATP by HTRF assay relative to control; conditions: time 60.0 min
[18] = Toxicity in BALB/c nude mouse assessed as effect on body weight loss at 10 to 50 mg/kg/day, po measured every three days for 21 days; assay type: organism-based; conditions: in vivo, 504 h, dose 10-50 mg/kg/day, time 21 day
[19] = test system: Epidermal growth factor receptor (Homo sapiens), P00533 [UNDEFINED MUTATION]; conditions: dose 100.0 nM
[20] = organism: Homo sapiens; assay: Inhibition of AKT phosphorylation (unknown origin) at 100 nM by Western blotting analysis
[21] = test system: HCC827; assay: Inhibition of colony formation in human HCC827 cells at 100 nM measured after 14 days by crystal violet staining based analysis relative to control; assay type: functional; conditions: HCC827, 336 h, time 14 day
[22] = test system: HCC827; assay: Induction of apoptosis in human HCC827 cells assessed as late apoptotic cells at 10 nM measured after 24 hrs by annexin V/PI staining based flu cytometry analysis (reference value: 5.50%); assay type: functional
[23] = test system: HCC827; assay: Induction of cell cycle arrest in human HCC827 cells assessed as accumulation of cells at S phase at 30 nM measured after 24 hrs by PI staining based flow cytometry analysis (reference value: 28.81%); assay type: functional
[24] = Toxicity in BALB/c nude mouse assessed as animal death at 10 to 50 mg/kg/day, po measured every three days for 21 days; assay type: organism-based; conditions: in vivo, 504 h, dose 10-50 mg/kg/day, time 21 day
[25] = test system: HCC827; assay: Inhibition of cell migration in human HCC827 cells at 10 to 100 nM measured upto 24 hrs by scratch-wound assay; assay type: functional, cell-based; conditions: dose 10-100 nM
[26] = test system: HCC827; assay: Antitumor activity against human HCC827 cells xenografted in BALB/c nude mouse assessed as tumor growth inhibition at 10 mg/kg/day, po measured every three days for 21 days by vernier caliper based analysis relative to control; assay type: functional; conditions: HCC827, 504 h, time 21 day, read-out: TGI
[27] = biological target: Epidermal growth factor receptor (Homo sapiens, UniProt P00533, C797S/L858R/T790M); assay: Inhibition of EGFR L858R/T790M/C797S triple mutant (unknown origin) preincubated for 10 mins followed by substrate addition and measured after 50 mins in presence of ATP by HTRF assay
Chain of Epidermal growth factor receptor (Homo sapiens, UniProt P00533, C797S/L858R/T790M) (P00533 25-1210 T790M/C797S/L858R limits assumed): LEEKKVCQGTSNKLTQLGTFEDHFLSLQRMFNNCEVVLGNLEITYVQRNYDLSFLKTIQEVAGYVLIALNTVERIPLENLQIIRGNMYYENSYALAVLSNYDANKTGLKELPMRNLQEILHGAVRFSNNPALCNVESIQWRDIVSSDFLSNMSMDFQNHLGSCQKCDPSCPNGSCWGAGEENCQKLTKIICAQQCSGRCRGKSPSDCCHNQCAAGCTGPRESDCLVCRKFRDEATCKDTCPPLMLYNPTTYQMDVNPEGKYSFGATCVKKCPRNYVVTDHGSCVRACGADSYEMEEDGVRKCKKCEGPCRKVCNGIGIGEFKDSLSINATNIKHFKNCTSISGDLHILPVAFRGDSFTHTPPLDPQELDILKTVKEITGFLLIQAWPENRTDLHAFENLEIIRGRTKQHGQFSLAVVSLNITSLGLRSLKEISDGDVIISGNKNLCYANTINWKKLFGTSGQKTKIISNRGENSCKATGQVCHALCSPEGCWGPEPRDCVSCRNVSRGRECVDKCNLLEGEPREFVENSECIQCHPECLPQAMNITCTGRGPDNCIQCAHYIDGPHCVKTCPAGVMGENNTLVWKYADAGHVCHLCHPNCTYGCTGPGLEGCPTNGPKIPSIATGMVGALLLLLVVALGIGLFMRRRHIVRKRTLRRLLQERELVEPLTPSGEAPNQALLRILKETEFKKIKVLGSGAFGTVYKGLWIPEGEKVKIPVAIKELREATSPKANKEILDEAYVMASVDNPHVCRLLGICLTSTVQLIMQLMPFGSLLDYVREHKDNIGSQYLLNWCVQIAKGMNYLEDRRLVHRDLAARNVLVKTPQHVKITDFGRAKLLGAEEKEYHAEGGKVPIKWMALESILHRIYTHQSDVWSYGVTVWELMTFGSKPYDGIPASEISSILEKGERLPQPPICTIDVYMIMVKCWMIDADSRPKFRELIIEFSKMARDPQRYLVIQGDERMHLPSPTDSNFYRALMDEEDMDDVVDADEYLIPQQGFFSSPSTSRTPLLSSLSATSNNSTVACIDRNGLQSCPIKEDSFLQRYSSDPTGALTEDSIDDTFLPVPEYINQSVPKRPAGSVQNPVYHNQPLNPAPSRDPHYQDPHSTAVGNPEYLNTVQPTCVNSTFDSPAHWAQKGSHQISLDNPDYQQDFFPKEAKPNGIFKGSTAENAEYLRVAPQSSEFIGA

[28] = test system: HCC827; assay: Induction of apoptosis in human HCC827 cells assessed as viable cells at 30 nM measured after 24 hrs by annexin V/PI staining based flu cytometry analysis (reference value: 84.0%); assay type: functional; conditions: read-out: Activity
[29] = test system: HCC827; assay: Induction of cell cycle arrest in human HCC827 cells assessed as accumulation of cells at S phase at 100 nM measured after 24 hrs by PI staining based flow cytometry analysis (reference value: 28.81%); assay type: functional
[30] = test system: HCC827; assay: Induction of apoptosis in human HCC827 cells assessed as early apoptotic cells at 100 nM measured after 24 hrs by annexin V/PI staining based flu cytometry analysis (reference value: 3.2%); assay type: functional
[31] = Cytotoxicity against human 2BS cells assessed as inhibition of cell viability measured after 72 hrs by MTT assay; assay type: toxicity, cell-based
[32] = test system: HCC827; assay: Induction of cell cycle arrest in human HCC827 cells assessed as accumulation of cells at S phase at 10 nM measured after 24 hrs by PI staining based flow cytometry analysis (reference value: 28.81%); assay type: functional
[33] = test system: HCC827; assay: Induction of apoptosis in human HCC827 cells assessed as activation of PARP level measured after 48 hrs by Western blot analysis; assay type: functional, cell-based; conditions: dose 10-400 nM
[34] = biological target: Proto-oncogene tyrosine-protein kinase ROS (Homo sapiens) (UniProt P08922); assay: Inhibition of ROS (unknown origin) by HTRF assay relative to control; conditions: concentration not given here
[35] = test system: HCC827; assay: Antitumor activity against human HCC827 cells xenografted in BALB/c nude mouse assessed as tumor growth inhibition at 50 mg/kg/day, po measured every three days for 21 days by vernier caliper based analysis relative to control; assay type: functional; conditions: HCC827, 504 h, time 21 day, read-out: TGI

O=C(NO)c1sccc1Nc1nc(Nc2ccc(N3CCOCC3)cc2)ncc1Cl
inhibition [1]: Active | IC50 [2]: 703 nM | inhibition [3]: < 70% | Activity [4]: Non-Toxic | Activity [5]: 6.32% | inhibition [6]: < 70% | IC50 [7]: 43.9 nM | Activity [8]: 9.96% | Activity [9]: Dose-Dependent Effect | inhibition [10]: < 70% | inhibition [11]: < 70% | IC50 [12]: 24.6 nM | Activity [13]: Dose-Dependent Effect | Activity [14]: 10.4% | inhibition [15]: < 70% | Activity [16]: 46.13% | inhibition [17]: 99.5% | Activity [18]: Non-Toxic | inhibition [19]: 88.6% | inhibition [20]: Active | inhibition at 0.1 µM [21]: 100% | Activity [22]: 6.53% | Activity [23]: 12.31% | Activity [24]: Non-Toxic | inhibition [25]: Active | inhibition in vivo at 10 mg/kg/day [26]: 50.6% | IC50 [27]: 11.8 nM | viability at 0.03 µM [28]: 70.7% | Activity [29]: 9.64% | Activity [30]: 3.41% | IC50 at 72 h [31]: 24600 nM | Activity [32]: 16.41% | Activity [33]: Dose-Dependent Effect | inhibition [34]: < 70% | inhibition in vivo at 50 mg/kg/day [35]: 89.5%
